Reference: PMC6125145, “Mitochondrial Supercomplexes Do Not Enhance Catalysis by Quinone Channeling” (Cell Metabolism, 2018)

What was measured:
Format in all cases: biochemical
[1] = target: T1, complex I (CI, NADH:ubiquinone oxidoreductase) (Bos taurus, UniProt P03887+P17694+P42026); test: reverse electron transfer (NAD+ reduction) in bovine heart SMPs, NADH absorbance; conditions: RET assay: 1 mM NAD+, 10 mM succinate, 1 mM MgATP, 50 μg/mL SMPs, pH 7.5, 32 °C, anaerobic; RET direction only, NADH oxidation not inhibited; RET also needs complex II
T1 construct: gene NDUFS2; native enzyme in coupled submitochondrial particles (inverted inner-membrane vesicles) from bovine heart mitochondria; in supercomplexes; with NADH-ubiquinone oxidoreductase 75 kDa subunit, mitochondrial; NADH dehydrogenase [ubiquinone] flavoprotein 1, mitochondrial; NADH dehydrogenase [ubiquinone] flavoprotein 2, mitochondrial; NADH dehydrogenase [ubiquinone] iron-sulfur protein 3, mitochondrial; NADH dehydrogenase [ubiquinone] iron-sulfur protein 8, mitochondrial; NADH-ubiquinone oxidoreductase chain 2; NADH-ubiquinone oxidoreductase chain 3; NADH-ubiquinone oxidoreductase chain 4; NADH-ubiquinone oxidoreductase chain 4L; NADH-ubiquinone oxidoreductase chain 5; NADH-ubiquinone oxidoreductase chain 6

[2] = target: T2, AOX (alternative oxidase) (Trypanosoma brucei, UniProt Q26710); test: NADH:O2 oxidoreduction of SMPs with added purified AOX, cyanide-insensitive rate; conditions: 300 or 500 nM ascofuranone, 0.1 mg AOX per mg SMP, 200 μM NADH, 400 μM NaCN (500 nM trace) or gramicidin (300 nM), pH 7.5, 32 °C
T2 construct: expressed in E. coli FN102 (hemA deficient), purified in DDM and added to membranes

[3] = target: T2, AOX (alternative oxidase); test: NADH:O2 oxidoreduction via complex I with AOX added to SMPs or CI-only proteoliposomes; conditions: quinol produced by complex I from endogenous ubiquinone or ubiquinone-10 in proteoliposomes, pH 7.5, 32 °C

T2 sequence (Q26710 25-329): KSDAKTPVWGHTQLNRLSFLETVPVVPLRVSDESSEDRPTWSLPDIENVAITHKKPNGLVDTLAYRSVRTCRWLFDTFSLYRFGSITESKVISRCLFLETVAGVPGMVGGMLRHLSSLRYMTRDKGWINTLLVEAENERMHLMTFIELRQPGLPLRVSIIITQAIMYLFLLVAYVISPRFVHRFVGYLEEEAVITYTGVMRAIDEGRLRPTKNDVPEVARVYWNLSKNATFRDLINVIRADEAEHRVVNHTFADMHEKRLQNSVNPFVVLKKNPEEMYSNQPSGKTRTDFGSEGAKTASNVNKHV
T1 sequence (P17694 34-463): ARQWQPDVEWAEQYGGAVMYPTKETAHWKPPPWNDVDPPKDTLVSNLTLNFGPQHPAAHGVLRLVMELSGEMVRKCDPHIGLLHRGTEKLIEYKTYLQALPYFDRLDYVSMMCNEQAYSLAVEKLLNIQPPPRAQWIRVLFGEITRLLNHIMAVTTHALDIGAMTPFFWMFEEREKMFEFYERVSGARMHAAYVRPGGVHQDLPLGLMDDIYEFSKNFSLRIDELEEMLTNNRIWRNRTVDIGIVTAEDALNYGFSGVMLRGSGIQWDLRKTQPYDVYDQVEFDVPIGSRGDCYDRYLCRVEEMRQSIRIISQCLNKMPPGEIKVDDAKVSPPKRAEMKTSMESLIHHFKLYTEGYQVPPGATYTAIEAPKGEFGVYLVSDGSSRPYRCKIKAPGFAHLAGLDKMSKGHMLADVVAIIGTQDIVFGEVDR
T1 sequence (P03887 whole entry): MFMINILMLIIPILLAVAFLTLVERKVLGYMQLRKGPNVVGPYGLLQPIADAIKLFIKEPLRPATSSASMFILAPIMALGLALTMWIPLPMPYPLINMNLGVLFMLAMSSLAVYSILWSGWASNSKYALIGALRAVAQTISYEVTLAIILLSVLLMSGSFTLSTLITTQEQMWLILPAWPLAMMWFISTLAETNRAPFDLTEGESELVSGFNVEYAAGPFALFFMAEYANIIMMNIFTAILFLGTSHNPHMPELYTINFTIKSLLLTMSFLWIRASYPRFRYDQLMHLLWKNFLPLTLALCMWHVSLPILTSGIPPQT
T1 sequence (P42026 38-216): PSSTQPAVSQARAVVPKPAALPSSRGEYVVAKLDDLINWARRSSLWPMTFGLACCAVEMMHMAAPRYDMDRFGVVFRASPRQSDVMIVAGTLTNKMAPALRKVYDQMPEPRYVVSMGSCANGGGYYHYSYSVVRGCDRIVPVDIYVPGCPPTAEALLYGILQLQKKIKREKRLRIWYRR
T1 sequence (P25708 21-464 partner): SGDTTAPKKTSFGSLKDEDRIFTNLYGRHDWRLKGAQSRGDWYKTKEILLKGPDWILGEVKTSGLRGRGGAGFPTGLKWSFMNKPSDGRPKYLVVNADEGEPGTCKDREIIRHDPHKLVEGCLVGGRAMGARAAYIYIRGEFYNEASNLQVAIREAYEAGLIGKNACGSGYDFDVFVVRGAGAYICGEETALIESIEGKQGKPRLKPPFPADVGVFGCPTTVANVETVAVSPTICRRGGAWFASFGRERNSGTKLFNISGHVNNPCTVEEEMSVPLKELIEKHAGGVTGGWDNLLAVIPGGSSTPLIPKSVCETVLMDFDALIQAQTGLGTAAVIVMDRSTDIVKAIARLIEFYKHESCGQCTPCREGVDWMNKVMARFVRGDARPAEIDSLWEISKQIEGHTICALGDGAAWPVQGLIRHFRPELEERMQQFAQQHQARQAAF
T1 sequence (P15690 24-727 partner): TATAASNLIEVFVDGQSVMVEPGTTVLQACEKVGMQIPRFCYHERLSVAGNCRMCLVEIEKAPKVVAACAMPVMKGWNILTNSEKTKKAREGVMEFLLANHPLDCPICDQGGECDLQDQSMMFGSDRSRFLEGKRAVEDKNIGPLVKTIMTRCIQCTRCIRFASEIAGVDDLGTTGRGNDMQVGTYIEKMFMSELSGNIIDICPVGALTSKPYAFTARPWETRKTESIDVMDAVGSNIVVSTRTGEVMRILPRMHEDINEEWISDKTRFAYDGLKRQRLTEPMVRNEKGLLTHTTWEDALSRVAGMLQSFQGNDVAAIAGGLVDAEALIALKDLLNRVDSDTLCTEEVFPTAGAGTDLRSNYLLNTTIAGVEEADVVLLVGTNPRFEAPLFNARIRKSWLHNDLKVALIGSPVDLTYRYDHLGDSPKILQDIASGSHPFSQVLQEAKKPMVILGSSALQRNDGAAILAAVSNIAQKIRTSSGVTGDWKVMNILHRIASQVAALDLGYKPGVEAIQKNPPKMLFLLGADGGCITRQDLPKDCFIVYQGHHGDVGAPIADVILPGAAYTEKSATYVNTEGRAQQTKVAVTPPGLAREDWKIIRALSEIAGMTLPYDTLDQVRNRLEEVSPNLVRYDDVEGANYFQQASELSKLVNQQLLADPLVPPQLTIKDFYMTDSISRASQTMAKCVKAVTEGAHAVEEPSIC

With C/C(=C\Cc1c(O)c(Cl)c(C)c(C=O)c1O)CC/C=C(\C)[C@@H]1CC(=O)C(C)(C)O1 [ascofuranone] the IC50 [1] was 440 ± 40 nM and the “NADH:O2 oxidoreduction of SMPs with added purified AOX, cyanide-insensitive rate” value [2] was “AOX-catalyzed quinol oxidation is insensitive to cyanide”.
For COc1c(O)c(C)c(C/C=C(\C)CC/C=C(\C)CC/C=C(\C)CC/C=C(\C)CC/C=C(\C)CC/C=C(\C)CC/C=C(\C)CC/C=C(\C)CC/C=C(\C)CCC=C(C)C)c(O)c1OC [quinol], the “NADH:O2 oxidoreduction via complex I with AOX added to SMPs or CI-only proteolip” value [3] was “also observed in synthetic, CI-only proteoliposomes containing ubiquinone-10”.
